This note sets out measurements from ChEMBL document CHEMBL1129092, “Structure-activity relationship study on N-glycosyl moieties through model building of DNA and ellipticine N-glycoside complex” (1996).

Assay [1] is filed under the species Mus musculus. The assay is described as follows: Compound was tested for antitumor activity against L1210 in mice; Active. The format is functional, organism-based.
Another assay deals with L1210. The assay is described as follows: Antitumor activity against L1210 in mice, after ip administration at 30 mg/kg for 5 consecutive days, expressed as average % of life time in 6 mice, treated mice/control. The format is functional, Mus musculus. Particulars: route intraperitoneal.
Assay [2] is filed under the species Mus musculus. The assay is described as follows: Compound was tested for antitumor activity against L1210 in mice; Inactive. Type of assay: functional, organism-based.

Active and inactive are the calls of the source. The rule behind the calls is not given here.

For `CO[C@@H]1[C@@H](O)[C@H]([n+]2ccc3c(C)c4[nH]c5ccc(O)cc5c4c(C)c3c2)OC[C@@H]1O.[Br-]`, in the assay listed under Mus musculus [1], the “Activity Score” value is “Active”. In the assay with L1210, the T/C stood at 169%.
Regarding `CO[C@H]1CO[C@@H]([n+]2ccc3c(C)c4[nH]c5ccc(O)cc5c4c(C)c3c2)[C@H](O)[C@H]1O.[Br-]`, the “Activity Score” value in the assay filed under Mus musculus [1] is “Active”. For the same compound, the T/C in the assay with L1210 stood at 167%.
Regarding `CO[C@@H]1[C@@H](O)[C@@H](O)CO[C@H]1[n+]1ccc2c(C)c3[nH]c4ccc(O)cc4c3c(C)c2c1.[Br-]`, the “Activity Score” value in the assay listed under Mus musculus [2] is “inactive”. In the assay on L1210, this compound displayed a T/C of 123%.
Consider `Cc1c2cc[n+]([C@@H]3OC[C@H](O)[C@H](O)[C@H]3O)cc2c(C)c2c1[nH]c1ccc(O)cc12.[Br-]`, for which the “Activity Score” value in the assay filed under Mus musculus [1] is “Active”. This compound yielded a T/C in the assay on L1210 of over 960%.
